Measured values: patent publication US10870641B2, “Pyridazinones as PARP7 inhibitors” (Ribon Therapeutics Inc., priority 2018, dated 2020)

Legend:
TIPARP (PARP7) = TIPARP (PARP7) (Homo sapiens (Human), UniProt Q7Z3E1); test: Enzymatic assay for inhibition of PARP7: displacement of biotinylated Probe A (TR-FRET); format: binding; details: TR-FRET displacement of Probe A from TIPARP
Experimental: 20 nL of a dose response curve of each test compound was spotted in black 384-well polystyrene proxiplates (Perkin Elmer) using a Mosquito (TTP Labtech). […] Reactions were incubated at 25° C. for an additional 30 min, then read on an Envision plate reader equipped with a LANCE/DELFIA top mirror (Perkin Elmer) using excitation of 320 nm and emission of 615 nm and […] with a 90 μs delay. The ratio of the 665/615 nm emission were calculated for each well to determine the amount of complex of TIPARP and Probe A in each well. […] The Hill Coefficient is normally allowed to float but may also be fixed at 1 in a 3-parameter fit. Y is the % inhibition and X is the compound concentration.

[1] = system: NCI-H1373 lung cancer cells; test: Inhibition of cancer cell growth in NCI-H1373 cells (FIG. 2); format: cell-based, human
CT26 cells = test: Inhibition of tumor growth, CT26 murine syngeneic model, subcutaneous dosing; format: in vivo; details: BALB/c mice, Compound 98 500 mg/kg S.C. QD, Compound 93A 100 mg/kg S.C. BID, 21 days
Description: (§1) Example G: Inhibition of Tumor Growth by Treatment with PARP7 Inhibitors
For the CT26 study BALB/c mice were inoculated subcutaneously at the right flank with CT26 cells for tumor development. Four days after tumor inoculation, 36 mice with tumor size ranging from 40-55 mm^3 (average tumor size 47 mm^3) were selected and assigned into 3 groups using stratified randomization with 12 mice in each group based upon their tumor volumes. The treatments were started from the next day post randomization (defined randomization day as day 0) and were treated with vehicle (0.5% methylcellulose+0.2% Tween 80), Compound 98 (500 mg/kg S.C. QD*21 days), Compound 93A (100 mg/kg S.C. BID*21 days) respectively. The tumor sizes were measured three times per week during the treatment. The entire study was terminated on day 21.
(§2) Mean tumor volume and SEM for both studies are plotted. Statistical significance, calculated using two-tailed unpaired t-tests in which each treatment group was compared to vehicle control, is indicated by an asterisk. Statistics were performed on groups with less than 20% animal loss (D21 for CT26, D17 for 4T1).

4T1-luc2-1A4 cells = test: Inhibition of tumor growth, 4T1 murine syngeneic model, subcutaneous dosing; format: in vivo; details: 4T1 orthotopic syngeneic, BALB/c mice; Compound 98 500 mg/kg S.C. QD, Compound 93A 100 mg/kg S.C. BID, 21 days
Description: as §1
For the 4T1 study female BALB/c mice were inoculated orthotopically in the mammary fat pad with 4T1-luc2-1A4 cells for tumor development. Eight days after tumor inoculation, 45 mice with tumor size ranging from 63-88 mm^3 (average tumor size 67 mm^3) were selected and assigned into 3 groups using stratified randomization with 15 mice in each group based upon their tumor volumes. The treatments were started from the next day post randomization (defined randomization day as D0) and were treated with vehicle (0.5% methylcellulose+0.2% Tween 80), Compound 98 (500 mg/kg S.C. QD*21 days), Compound 93A (100 mg/kg S.C. BID*21 days) respectively. The tumor sizes were measured three times per week during the treatment. The entire study was terminated on D20.
as §2

[2] = system: RAW264.7 mouse macrophages; test: Induction of interferon-beta levels in RAW264.7 macrophages in the presence of STING agonist DMXAA (FIG. 3); format: cell-based
[3] = system: CT26 mouse colon cancer cells; test: Induction of interferon-beta levels in CT26 cells in the presence of STING agonist DMXAA (FIG. 3); format: cell-based
PARP7 = PARP7 (Homo sapiens (Human), UniProt Q7Z3E1); test: PARP7 inhibition potency (Table A-1); format: binding; details: comparison of separated isomers; see Table A-1
Chain of PARP7 (Q7Z3E1 whole entry): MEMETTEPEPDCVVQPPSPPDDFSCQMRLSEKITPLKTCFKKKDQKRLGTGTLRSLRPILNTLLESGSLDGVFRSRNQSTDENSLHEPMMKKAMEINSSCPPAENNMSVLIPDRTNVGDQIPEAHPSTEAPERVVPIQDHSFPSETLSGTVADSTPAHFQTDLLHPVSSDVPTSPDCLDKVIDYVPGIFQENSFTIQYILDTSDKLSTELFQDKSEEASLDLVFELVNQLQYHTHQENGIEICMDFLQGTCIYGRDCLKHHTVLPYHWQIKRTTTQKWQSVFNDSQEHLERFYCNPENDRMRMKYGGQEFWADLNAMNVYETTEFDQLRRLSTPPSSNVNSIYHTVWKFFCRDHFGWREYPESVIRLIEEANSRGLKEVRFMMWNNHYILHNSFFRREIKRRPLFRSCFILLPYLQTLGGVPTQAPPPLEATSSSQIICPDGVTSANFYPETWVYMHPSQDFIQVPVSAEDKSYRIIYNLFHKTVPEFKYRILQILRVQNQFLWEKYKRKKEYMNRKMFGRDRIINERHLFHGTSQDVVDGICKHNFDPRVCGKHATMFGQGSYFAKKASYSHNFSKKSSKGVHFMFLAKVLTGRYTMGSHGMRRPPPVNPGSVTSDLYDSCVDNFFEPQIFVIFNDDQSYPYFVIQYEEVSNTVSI

Chain of TIPARP (PARP7) (Q7Z3E1 whole entry): as above

Structure (SMILES) | IC50 (TIPARP (PARP7)) [nM] | other results
N#Cc1ccc(N2CCN(C(=O)c3ccc(OC[C@H]4c5ccccc5CN4c4cn[nH]c(=O)c4C(F)(F)F)cc3)CC2)nc1 [Example 35B, 6-[4-[(4-[[(1R)-2-[6-oxo-5-(trifluoromethyl)-1,6-dihydropyridazin-4-yl]-2,3-dihydro-1H-isoindol-1-yl]methoxy]phenyl)carbonyl]piperazin-1-yl]pyridine-3-carbonitrile] | 100 to 1000 | 
N#Cc1ccc(N2CCN(C(=O)c3ccnc(OC[C@H]4c5ccccc5CN4c4cn[nH]c(=O)c4C(F)(F)F)c3)CC2)nc1 [Example 36A, 6-[4-[(2-[[(1R)-2-[6-oxo-5-(trifluoromethyl)-1,6-dihydropyridazin-4-yl]-2,3-dihydro-1H-isoindol-1-yl]methoxy]pyridin-4-yl)carbonyl]piperazin-1-yl]pyridine-3-carbonitrile] | ≥ 1000 | 
N#Cc1ccc(N2CCN(C(=O)c3ccnc(OC[C@@H]4c5ccccc5CN4c4cn[nH]c(=O)c4C(F)(F)F)n3)CC2)nc1 [Example 38A, 6-[4-[(2-[[(1S)-2-[6-Oxo-5-(trifluoromethyl)-1,6-dihydropyridazin-4-yl]-2,3-dihydro-1H-isoindol-1-yl]methoxy]pyrimidin-4-yl)carbonyl]piperazin-1-yl]pyridine-3-carbonitrile] | < 100 | 
N#Cc1ccc(N2CCN(C(=O)c3cccc(OCCOc4cccc5c4CN(c4cn[nH]c(=O)c4C(F)(F)F)C5)c3)CC2)nc1 [Example 39, 6-[4-([3-[2-([2-[6-Oxo-5-(trifluoromethyl)-1,6-dihydropyridazin-4-yl]-2,3-dihydro-1H-isoindol-4-yl]oxy)ethoxy]phenyl]carbonyl)piperazin-1-yl]pyridine-3-carbonitrile] |  | growth of NCI-H1373 lung cancer cells [1]: dose-dependent decrease in growth
N#Cc1ccc(N2CCN(C(=O)c3cncc(OC[C@H]4c5ccccc5CN4c4cn[nH]c(=O)c4C(F)(F)F)n3)CC2)nc1 [Example 72B, 6-[4-[(6-[[(1R)-2-[6-oxo-5-(trifluoromethyl)-1,6-dihydropyridazin-4-yl]-2,3-dihydro-1H-isoindol-1-yl]methoxy]pyrazin-2-yl)carbonyl]piperazin-1-yl]pyridine-3-carbonitrile] | < 100 | 
O=C(COC[C@@H]1CCCN1c1cn[nH]c(=O)c1C(F)(F)F)N[C@H]1CC[C@H](Nc2ccccn2)CC1 [Example 80A, 2-[[(2S)-1-[6-oxo-5-(trifluoromethyl)-1,6-dihydropyridazin-4-yl]pyrrolidin-2-yl]methoxy]-N-[(1r,4r)-4-[(pyridin-2-yl)amino]cyclohexyl]acetamide] | 100 to 1000 | 
N#Cc1ccc(N2CCN(C(=O)CCOC[C@@H]3c4ccccc4CN3c3cn[nH]c(=O)c3C(F)(F)F)CC2)nc1 [Example 93A, 6-[4-(3-[[(1S)-2-[6-oxo-5-(trifluoromethyl)-1,6-dihydropyridazin-4-yl]-2,3-dihydro-1H-isoindol-1-yl]methoxy]propanoyl)piperazin-1-yl]pyridine-3-carbonitrile] |  | tumor growth (CT26 cells): significantly reduce tumor growth; growth of NCI-H1373 lung cancer cells [1]: dose-dependent decrease in growth; tumor growth (4T1-luc2-1A4 cells): significantly reduce tumor growth
N#Cc1ccc(N2CCN(C(=O)CCOC[C@@H]3CCCN3c3cn[nH]c(=O)c3C(F)(F)F)CC2)nc1 [Example 98, 6-[4-(3-[[(2S)-1-[6-Oxo-5-(trifluoromethyl)-1,6-dihydropyridazin-4-yl]pyrrolidin-2-yl]methoxy]propanoyl)piperazin-1-yl]pyridine-3-carbonitrile] |  | tumor growth (CT26 cells): significantly reduce tumor growth; interferon-beta (IFN-β) levels [2]: induction of interferon-beta (IFN-β) levels; interferon-beta (IFN-β) levels [3]: induction of interferon-beta (IFN-β) levels; growth of NCI-H1373 lung cancer cells [1]: dose-dependent decrease in growth; tumor growth (4T1-luc2-1A4 cells): significantly reduce tumor growth
N#Cc1ccc(N2CCC3C2CCN3C(=O)CCOC[C@@H]2CCCN2c2cn[nH]c(=O)c2C(F)(F)F)nc1 (stereo partly drawn) [Example 110, 6-[4-(3-[[(2S)-1-[6-oxo-5-(trifluoromethyl)-1,6-dihydropyridazin-4-yl]pyrrolidin-2-yl]methoxy]propanoyl)-octahydropyrrolo[3,2-b]pyrrol-1-yl]pyridine-3-carbonitrile] | < 100 | 
N#Cc1ccc(N2CCN(C(=O)C[C@H]3CC[C@@H]([C@@H]4CCCN4c4cn[nH]c(=O)c4C(F)(F)F)O3)CC2)nc1 [Example 141B, 6-(4-[2-[(2R,5S)-5-[(2S)-1-[6-oxo-5-(trifluoromethyl)-1,6-dihydropyridazin-4-yl]pyrrolidin-2-yl]oxolan-2-yl]acetyl]piperazin-1-yl)pyridine-3-carbonitrile] |  | relative potency of the enantiomers (PARP7): more potent enantiomer
N#Cc1ccc(N2CCN(C(=O)CNCC[C@H]3c4ccccc4CN3c3cn[nH]c(=O)c3C(F)(F)F)CC2)nc1 [Example 144A, 6-[4-[2-([2-[(1S)-2-[6-oxo-5-(trifluoromethyl)-1,6-dihydropyridazin-4-yl]-2,3-dihydro-1H-isoindol-1-yl]ethyl]amino)acetyl]piperazin-1-yl]pyridine-3-carbonitrile] | < 100 | 
O=C(CCOCCNc1cn[nH]c(=O)c1C(F)(F)F)N1CCN(c2ccc(Cl)cn2)CC1 [Example 506, 5-[(2-[3-[4-(5-Chloropyridin-2-yl)piperazin-1-yl]-3-oxopropoxy]ethyl)amino]-4-(trifluoromethyl)-2,3-dihydropyridazin-3-one] | < 100 | 
CC(C)(COCCC(=O)N1CCN(c2ccc(C#N)cn2)CC1)Nc1cn[nH]c(=O)c1C(F)(F)F [Example 519, 6-[4-[3-(2-Methyl-2-[[6-oxo-5-(trifluoromethyl)-1,6-dihydropyridazin-4-yl]amino]propoxy)propanoyl]piperazin-1-yl]pyridine-3-carbonitrile] | < 100 | 
O=C(CCOCCOc1cn[nH]c(=O)c1Cl)N1CCN(c2ccc(Cl)cn2)CC1 [Example 523, 4-Chloro-5-(2-[3-[4-(5-chloropyridin-2-yl)piperazin-1-yl]-3-oxopropoxy]ethoxy)-2,3-dihydropyridazin-3-one] | < 100 | 
N#Cc1ccc(N2CCN(C(=O)CCO[C@H]3Cc4ccccc4[C@@H]3Nc3cn[nH]c(=O)c3C(F)(F)F)CC2)nc1 [Example 537A] | ≥ 1000 | 
COC[C@@H](COc1cn[nH]c(=O)c1C(F)(F)F)OCCC(=O)N1CCN(c2ncc(Cl)cn2)CC1 [Example 560A, 5-[(2S)-2-[3-[4-(5-chloropyrimidin-2-yl)piperazin-1-yl]-3-oxopropoxy]-3-methoxypropoxy]-4-(trifluoromethyl)-2,3-dihydropyridazin-3-one] | < 100 | 
COC[C@H](COc1cn[nH]c(=O)c1C(F)(F)F)OCCC(=O)N1CCN(c2ncc(Cl)cn2)CC1 [Example 560B, 5-[(2R)-2-[3-[4-(5-chloropyrimidin-2-yl)piperazin-1-yl]-3-oxopropoxy]-3-methoxypropoxy]-4-(trifluoromethyl)-2,3-dihydropyridazin-3-one] | 100 to 1000 | 
